Data set [1] deals with T1, Rat AhR (Rattus norvegicus, UniProt P41738).
T1 sequence (P41738 10-853): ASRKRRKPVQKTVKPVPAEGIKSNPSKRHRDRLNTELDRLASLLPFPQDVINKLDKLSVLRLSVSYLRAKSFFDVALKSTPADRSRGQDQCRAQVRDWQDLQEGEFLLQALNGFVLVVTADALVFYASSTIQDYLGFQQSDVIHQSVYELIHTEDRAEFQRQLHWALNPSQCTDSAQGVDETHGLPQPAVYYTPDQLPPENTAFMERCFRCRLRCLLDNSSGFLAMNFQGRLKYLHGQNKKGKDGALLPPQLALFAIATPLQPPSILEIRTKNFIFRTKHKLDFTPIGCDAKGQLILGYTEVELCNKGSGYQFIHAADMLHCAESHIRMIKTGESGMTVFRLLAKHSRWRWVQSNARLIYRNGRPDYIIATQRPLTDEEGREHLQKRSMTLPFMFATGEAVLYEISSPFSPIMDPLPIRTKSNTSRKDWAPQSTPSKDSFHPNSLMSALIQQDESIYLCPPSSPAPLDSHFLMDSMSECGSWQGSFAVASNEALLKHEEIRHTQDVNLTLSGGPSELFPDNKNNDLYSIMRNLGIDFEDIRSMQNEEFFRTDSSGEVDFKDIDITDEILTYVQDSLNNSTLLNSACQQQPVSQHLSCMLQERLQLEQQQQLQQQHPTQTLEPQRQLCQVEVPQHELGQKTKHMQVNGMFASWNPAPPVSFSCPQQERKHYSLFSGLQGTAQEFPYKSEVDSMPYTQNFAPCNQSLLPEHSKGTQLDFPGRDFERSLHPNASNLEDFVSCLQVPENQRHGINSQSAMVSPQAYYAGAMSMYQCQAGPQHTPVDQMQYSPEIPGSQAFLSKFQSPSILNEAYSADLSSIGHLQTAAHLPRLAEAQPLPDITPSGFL
As to the kind of experiment: Competitive binding assay against [3H]-TCDD, recombinant rat AhR.

Data set [2] deals with T2, Human AhR (Homo sapiens, UniProt P35869).
T2 sequence (P35869 11-848): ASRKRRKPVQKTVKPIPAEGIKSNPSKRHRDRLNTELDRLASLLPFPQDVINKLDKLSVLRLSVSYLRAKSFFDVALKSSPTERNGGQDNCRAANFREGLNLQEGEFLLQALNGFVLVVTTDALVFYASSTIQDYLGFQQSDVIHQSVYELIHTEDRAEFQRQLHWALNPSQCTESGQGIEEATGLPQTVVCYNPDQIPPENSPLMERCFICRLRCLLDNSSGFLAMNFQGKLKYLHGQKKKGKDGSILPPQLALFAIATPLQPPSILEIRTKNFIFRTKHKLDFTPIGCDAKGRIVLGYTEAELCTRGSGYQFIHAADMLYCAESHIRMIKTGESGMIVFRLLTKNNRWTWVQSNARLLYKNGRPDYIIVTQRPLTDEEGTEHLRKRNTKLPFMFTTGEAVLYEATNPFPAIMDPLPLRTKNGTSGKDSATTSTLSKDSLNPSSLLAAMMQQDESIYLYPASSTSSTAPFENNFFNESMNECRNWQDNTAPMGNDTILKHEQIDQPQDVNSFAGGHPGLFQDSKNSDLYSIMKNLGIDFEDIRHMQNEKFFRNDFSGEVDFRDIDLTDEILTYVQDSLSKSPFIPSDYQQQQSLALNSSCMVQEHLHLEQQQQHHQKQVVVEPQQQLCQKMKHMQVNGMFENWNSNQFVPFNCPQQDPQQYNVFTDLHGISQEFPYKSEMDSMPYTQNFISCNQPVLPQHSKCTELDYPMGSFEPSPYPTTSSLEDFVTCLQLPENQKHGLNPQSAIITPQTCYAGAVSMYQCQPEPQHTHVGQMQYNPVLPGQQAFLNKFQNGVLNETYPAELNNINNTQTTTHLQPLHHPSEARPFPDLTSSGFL
As to the kind of experiment: Competitive binding assay against [3H]-TCDD, recombinant human AhR.

For another data set, the target named is T3, AhR in rat liver cytosol (Rattus norvegicus, UniProt P41738).
T3 sequence (P41738 10-853): T1 sequence (P41738 10-853)
As to the kind of experiment: [3H]-TCDD saturation binding, rat liver cytosol.

In data set [3] the target is T1, Rat AhR. As to the kind of experiment: [3H]-TCDD saturation binding, recombinant rat AhR in Sf9 cytosol.
The target of data set [4] is T2, Human AhR. As to the kind of experiment: [3H]-TCDD saturation binding, recombinant human AhR in Sf9 cytosol. Conditions: optimised conditions.
Data set [5] in a line: Solubility of TCDD in protein solution. Conditions: unpublished data. The data set is classed as physicochemical.

One may read the Ki as a measure of affinity in units of concentration, obtained from inhibition or displacement. As to `Clc1cc2c(cc1Cl)Oc1c(cc(Cl)c(Cl)c1Cl)O2` [1,2,3,7,8-pentachlorodibenzo-p-dioxin], the Ki worked out at 0.46 nM on Rat AhR [1] and 7.62 nM at Human AhR [2].
As for `Clc1cc2oc3c(Cl)c(Cl)c(Cl)cc3c2cc1Cl` [2,3,4,7,8-pentachlorodibenzofuran], on Rat AhR [1], the Ki is 1.5 nM. The “potency as ligand relative to PCDD, rat AhR” value at Rat AhR [1] (relative to PCDD) is recorded as “three-fold less potent”. Moreover, on Human AhR [2], the Ki stood at 14.1 nM; the “potency relative to TCDF and PCDD, human AhR” value is listed as “two-fold less potent”.
For `Clc1cc2oc3cc(Cl)c(Cl)cc3c2cc1Cl` [2,3,7,8-tetrachlorodibenzofuran], the Ki was 0.36 nM on Rat AhR [1] and 6.27 nM on Human AhR [2].
In the case of `Clc1ccc(-c2cc(Cl)c(Cl)c(Cl)c2)cc1Cl` [PCB126, polychlorinated biphenyl 126], the Ki on Rat AhR [1] was 24.7 nM; at Human AhR [2], 736 nM. Moreover, the “fold less potent than TCDD, rat AhR” value at Rat AhR [1] (relative to TCDD) is recorded as approximately 50 fold. Besides, the “fold less potent as a ligand than TCDD, human AhR” value on Human AhR [2] (relative to TCDD) was approximately 40 fold.
Turning to `Clc1cc2c(cc1Cl)Oc1cc(Cl)c(Cl)cc1O2` [TCDD, 2,3,7,8-tetrachlorodibenzo-p-dioxin], the Kd on AhR in rat liver cytosol (apparent Kd for TCDD, saturation binding, mean ± Standard deviation, n=6) was 1 ± 0.45 nM; at Rat AhR [3] (Kd (typical experiment, Fig. 5A), MOI of 0.1, typical experiment) it was 1.35 nM; at Rat AhR [3] (Kd for TCDD, recombinant rat AhR, MOI of 0.1, n=6 independent determinations) it was 1.34 ± 0.32 nM; on Human AhR [4] (Kd for TCDD, human AhR, n=6), 2.77 ± 0.94 nM. At AhR in rat liver cytosol (per mg cytosolic protein, [3H]-TCDD), the “maximal binding capacity (Bmax)” value was found to be 52 fmol/mg. On Rat AhR [3] (MOI of 0.1, [3H]-TCDD), the “Bmax, recombinant rat AhR” value is listed as 1.5±0.37 pmol/ mg cytosolic protein. In addition, the “Bmax (typical experiment, Fig. 5A)” value on Rat AhR [3] (MOI of 0.1, typical experiment) is 1.83 pmol/mg. The “Bmax, human AhR” value on Human AhR [4] ([3H]-TCDD) turned out to be 0.46±0.12 pmol/mg cytosolic protein. In addition, the Ki turned out to be 0.55 nM at Rat AhR [1] and 15.4 nM on Human AhR [2]. Besides, at Human AhR [2], the “potency relative to TCDF and PCDD, human AhR” value was “two-fold less potent”. Also, in data set [5], the “solubility in protein solution” value is given as “declines dramatically at concentrations much in excess of 2 nM”.

(Values after article PMC2621304 (Analytical biochemistry, 2008).)
